This note sets out measurements from PMC6264553, “Synthesis and In Vitro Protein Tyrosine Kinase Inhibitory Activity of Furan-2-yl(phenyl)methanone Derivatives” (Molecules, 2011).

Series [1] relates to Protein Tyrosine Kinase (PTK). Put plainly: PTK inhibitory activity, ELISA tyrosine kinase assay with poly-Glu-Tyr substrate. It counts as biochemical, rat. The note with it: for PTK inhibitory activity (in words): in vitro, SAR discussion; for IC50: tyrosine kinase extracted from rat brain tissue, means of three experiments, NA = not active at 5 μg/mL, read-out: Protein Tyrosine Kinase (PTK) inhibition activity, IC50. As to the method:
The activities of PTKs were tested using ELISA. The tyrosine kinase was extracted from brain tissue of rat, and microtiter plates were coated using poly-Glu-Tyr (PGT) as substrates. If the tyrosine residues of PGT were phosphorylated by PTKs, they bound to phospho-specific monoclonal antibody that was labeled specifically with HRP. The absorbance was measured to reflect the activity of PTK.
The phosphorylation assays were performed at 37 °C in a final volume of 40 µL tyrosine kinase. The concentrations of PTKs used to construct calibration curves were as follows: 600, 500, 400, 300, 200 and 100 × 10^−7 U/mL for PTK. A concentration of 500 × 10^−7/μL was used for each inhibitor. Phosphorylation reactions were initiated with the addition of 40 mM ATP (10 μL) into each vessel, and the plate was incubated at 37 °C for 30 min. After completion of reaction, liquid was decanted and the vessels were washed four times with Tween-PBS. One hundred microliters of blocking solution was added to the vessels and incubated at 37 °C for 30 min. After washing the plate with Tween-PBS, anti-phosphotyrosine (50 μL) was added to the vessels and incubated at 37 °C for 30 min. The reaction liquid was decanted and the remaining solution was removed by rinsing four times with Tween-PBS. One hundred μL of HRP coloring agent was added and incubated at 37 °C for 15 min. The reaction was terminated by addition of 1 N sulfuric acid (100 μL /well). The absorbance of the reaction was measured at 450 nm on a microplate reader.

Turning to `COc1c(O)c(C(=O)c2ccco2)cc(Br)c1Br` [Compound 21d, (4,5-Dibromo-2-hydroxy-3-methoxyphenyl)(furan-2-yl)methanone], the melting point lay within 102 to 104 °C.
`O=C(c1ccc(O)c(O)c1)c1cc(Br)c(Br)o1` [Compound 14, (4,5-Dibromofuran-2-yl)(3,4-dihydroxyphenyl)methanone] registered a melting point of 184 to 186 °C. Further, the “PTK inhibitory activity (in words)” value in series [1] is given as “no activity”.
As for `O=C(c1ccco1)c1cc(Br)ccc1O` [Compound 4c, (5-Bromo-2-hydroxyphenyl)(furan-2-yl)methanone], the melting point is 88 to 90 °C.
Consider `O=C(c1ccco1)c1cc(O)c(O)c(O)c1Cl` [Compound 22c, (2-Chloro-3,4,5-trihydroxyphenyl)(furan-2-yl)methanone], for which the melting point lay within 150 to 152 °C. The IC50 in series [1] amounted to 4.62 µM.
Compound `COc1ccc(C(=O)c2ccco2)cc1OC` [Compound 3a, (3,4-Dimethoxyphenyl)(furan-2-yl)methanone] came in with a melting point of 98 to 100 °C.
Consider `O=C(c1ccc(O)c(Br)c1)c1ccco1` [Compound 22a, (3-Bromo-4-hydroxyphenyl)(furan-2-yl)methanone], for which the melting point lay within 100 to 102 °C.
Turning to `O=C(c1ccc(Br)o1)c1ccc(O)c(O)c1O` [Compound 8a, (5-Bromofuran-2-yl)(2,3,4-trihydroxyphenyl)methanone], the melting point was in the range of 132 to 134 °C. For the same compound, the 50% inhibitory concentration (IC50) in series [1] came out at 5.31 µM.
`O=C(c1ccc(Br)o1)c1cc(Br)ccc1O` [Compound 8b, (5-Bromo-2-hydroxyphenyl)(5-bromofuran-2-yl)methanone] had a melting point of 82 to 84 °C.
Same read-out and setting: the same measure for `COc1ccc(C(=O)c2ccco2)c(OC)c1O` [Compound 3b, Furan-2-yl(3-hydroxy-2,4-dimethoxyphenyl)methanone]: 168 to 170 °C.
Regarding `O=C(c1ccc(O)c(O)c1)c1ccc(Br)o1` [Compound 8c, (5-Bromofuran-2-yl)(3,4-dihydroxyphenyl)methanone], in series [1], the “PTK inhibitory activity (in words)” value is on record as “strongest activity” and the IC50 turned out to be 2.72 µM.
With `O=C(c1ccco1)c1c(Br)c(O)c(O)c(O)c1Br` [Compound 22b, (2,6-Dibromo-3,4,5-trihydroxyphenyl)(furan-2-yl)methanone], the melting point was 148 to 150 °C. The “PTK inhibitory activity (in words)” value in series [1] is listed as “no activity”.
On to `COc1cccc(OC)c1C(=O)c1ccco1` [Compound 17b, (2,6-Dimethoxyphenyl)(furan-2-yl)methanone], for which the melting point lay within 64 to 66 °C.
On the same count and under the same terms, for `COc1ccc(C(=O)c2ccco2)cc1` [Compound 3d, Furan-2-yl(4-methoxyphenyl)methanone] the value was 58 to 60 °C; for `COc1ccc(Br)cc1C(=O)c1ccco1` [Compound 3c, (5-Bromo-2-methoxyphenyl)(furan-2-yl)methanone], 66 to 70 °C.
On to `O=C(c1ccco1)c1ccc(O)c(O)c1O` [Compound 4b, Furan-2-yl(2,3,4-trihydroxyphenyl)methanone], for which, in series [1], the IC50 was 6.42 µM.
In the case of `O=C(c1ccco1)c1cc(Br)c(Br)c(O)c1O` [Compound 22d, (4,5-Dibromo-2,3-dihydroxyphenyl)(furan-2-yl)methanone], the melting point was in the range of 138 to 140 °C. In series [1], the half-inhibitory concentration (IC50) was found to be 9.56 µM.
Compound `COc1ccc(C(=O)c2cc(Br)c(Br)o2)cc1O` [Compound 13, (4,5-Dibromofuran-2-yl)(3-hydroxy-4-methoxyphenyl)methanone] displayed a melting point of 107 to 109 °C.
For the compound `O=C(c1ccc(O)c(O)c1)c1ccco1` [Compound 4a, (3,4-Dihydroxyphenyl)(furan-2-yl)methanone], the melting point was in the range of 132 to 134 °C. In addition, in series [1], the IC50 is 4.66 µM.
In the case of `O=C(c1ccco1)c1c(O)cccc1O` [Compound 18b, (2,6-Dihydroxyphenyl)(furan-2-yl)methanone], the melting point was in the range of 66 to 68 °C. In series [1], the concentration for half-maximal inhibition (IC50) turned out to be 12.7 µM.
`COc1cc(C(=O)c2ccco2)c(Cl)c(OC)c1OC` [Compound 21c, (2-Chloro-3,4,5-trimethoxyphenyl)(furan-2-yl)methanone] registered a melting point of 80 to 82 °C.
Regarding `O=C(c1ccco1)c1cccc(O)c1O` [Compound 18a, (2,3-Dihydroxyphenyl)(furan-2-yl)methanone], the melting point lay within 64 to 66 °C. Further, the concentration for half-maximal inhibition (IC50) in series [1] was found to be 13.2 µM.
In the case of `COc1ccc(Br)cc1C(=O)c1ccc(Br)o1` [Compound 7b, (5-Bromo-2-methoxyphenyl)(5-bromofuran-2-yl)methanone], the melting point was 98 to 100 °C.
On the same count and under the same terms, the same measure for `COc1c(Br)c(C(=O)c2ccco2)c(Br)c(OC)c1OC` [Compound 21b, (2,6-Dibromo-3,4,5-trimethoxyphenyl)(furan-2-yl)methanone]: 96 to 98 °C.
